Experimental data published in ChEMBL document CHEMBL1158626, “Structure-activity relationship (SAR) investigations of tetrahydroquinolines as BKCa agonists” (2010).

Species: Rattus norvegicus
Experiment: Reduction in spontaneous neuronal firing in Sprague-Dawley rat at 10 uM
Type: functional

For O=C(O)c1ccc2c(c1)[C@@H]1C=CC[C@@H]1[C@@H](c1ccc(Cl)cc1Cl)N2, which “inhibition (INH)” value is on record?
The value was 75%.

Tested on: not listed separately
Experiment: Agonist activity at human BKCa channel expressed in CHO cells assessed as increase in potassium current at 10 uM by PatchXpress electrophysiology assay relative to control
Type: functional

For Cc1ccc([C@H]2Nc3ccc(C(=O)O)cc3[C@@H]3C=CC[C@H]23)c(C)c1, which “fold change (FC)” value is on record?
Its value is 8.9.

Which “fold change (FC)” value does the source give for O=C(O)c1ccc2c(c1)[C@@H]1C=CC[C@@H]1[C@@H](c1cccc(Cl)c1Cl)N2 here?
Its value is 2.7.

With O=C(O)c1ccc2c(c1)[C@@H]1C=CC[C@@H]1[C@@H](c1ccc(Cl)c(Cl)c1)N2 as the compound, how does the “fold change (FC)” value read?
Its value is 12.1.

With O=C(O)c1ccc2c(c1)[C@@H]1C=CC[C@@H]1[C@@H](c1ccc(Cl)cc1Cl)N2 as the compound, how does the “fold change (FC)” value read?
Its value is 11.2.

For O=C(O)c1ccc2c(c1)[C@@H]1C=CC[C@@H]1[C@@H](c1ccc(Cl)cc1)N2, which “fold change (FC)” value is on record?
The value was 7.3.

For O=C(O)c1ccc2c(c1)[C@@H]1C=CC[C@@H]1[C@@H](c1ccc(C(F)(F)F)cc1)N2, which “fold change (FC)” value is on record?
Its value is 6.

Which “fold change (FC)” value does the source give for O=C(O)c1ccc2c(c1)[C@@H]1C=CC[C@@H]1[C@@H](c1ccc(Br)cc1)N2 here?
Its value is 8.9.

With O=C(O)c1ccc2c(c1)[C@@H]1C=CC[C@@H]1[C@@H](c1cccc(Cl)c1)N2 as the compound, how does the “fold change (FC)” value read?
Its value is 2.2.

With Cc1cccc([C@H]2Nc3ccc(C(=O)O)cc3[C@@H]3C=CC[C@H]23)c1 as the compound, how does the “fold change (FC)” value read?
The value was 3.1.

Which “fold change (FC)” value does the source give for O=C(O)c1ccc2c(c1)[C@@H]1C=CC[C@@H]1[C@@H](c1ccccc1)N2 here?
The value was 1.2.

Which “fold change (FC)” value does the source give for O=C(O)c1ccc2c(c1)[C@@H]1C=CC[C@@H]1[C@@H](c1cccc(Br)c1)N2 here?
Its value is 2.6.

Which “fold change (FC)” value does the source give for CC(C)(C)[C@H]1Nc2ccc(C(=O)O)cc2[C@@H]2C=CC[C@@H]21 here?
Its value is 0.8.

With O=C(O)c1ccc2c(c1)[C@@H]1C=CC[C@@H]1[C@@H](c1ccccc1Cl)N2 as the compound, how does the “fold change (FC)” value read?
Its value is 4.9.

With O=C(O)c1ccc2c(c1)[C@@H]1C=CC[C@@H]1[C@@H](c1ncc(Cl)cc1Cl)N2 as the compound, how does the “fold change (FC)” value read?
The value was 2.5.

With O=C(O)c1ccc2c(c1)[C@@H]1C=CC[C@@H]1CN2 as the compound, how does the “fold change (FC)” value read?
The value was 0.6.

Which “fold change (FC)” value does the source give for Cn1cc([C@H]2Nc3ccc(C(=O)O)cc3[C@@H]3C=CC[C@H]23)cn1 here?
Its value is 1.

Tested on: not listed separately
Experiment: Agonist activity at human BKCa channel expressed in CHO cells assessed as increase in potassium current at 3 uM by PatchXpress electrophysiology assay relative to control
Type: functional

For O=C(O)c1ccc2c(c1)[C@@H]1CCC[C@@H]1[C@@H](c1ccc(Cl)cc1Cl)N2, which “fold change (FC)” value is on record?
The value was 4.6.

Which “fold change (FC)” value does the source give for O=C(O)c1ccc2c(c1)[C@@H]1C=CC[C@@H]1[C@@H](c1ccc(Cl)cc1Cl)N2 here?
The value was 6.7.

With O=C(O)c1ccc2c(c1)[C@@H]1C(O)C(O)C[C@@H]1[C@@H](c1ccc(Cl)cc1Cl)N2 (some centres not stated) as the compound, how does the “fold change (FC)” value read?
The value was 0.9.

For O=C(O)c1ccc2nc(-c3ccc(Cl)cc3Cl)c3c(c2c1)CCC3, which “fold change (FC)” value is on record?
The value was 1.

Which “fold change (FC)” value does the source give for O=C(O)c1ccc2c(c1)CC[C@@H](c1ccc(Cl)cc1Cl)N2 here?
Its value is 0.9.

For O=C(O)Cc1ccc2c(c1)[C@@H]1C=CC[C@@H]1[C@@H](c1ccc(Cl)cc1Cl)N2, which “fold change (FC)” value is on record?
Its value is 1.5.

Which “fold change (FC)” value does the source give for O=C(O)c1ccc2c(c1)[C@@H]1OCC[C@@H]1[C@@H](c1ccc(Cl)cc1Cl)N2 here?
The value was 1.

With CS(=O)(=O)NC(=O)c1ccc2c(c1)[C@@H]1C=CC[C@@H]1[C@@H](c1ccc(Cl)cc1Cl)N2 as the compound, how does the “fold change (FC)” value read?
Its value is 2.7.

Which “fold change (FC)” value does the source give for COC(=O)c1ccc2c(c1)[C@@H]1C=CC[C@@H]1[C@@H](c1ccc(Cl)cc1Cl)N2 here?
Its value is 1.

For OCc1ccc2c(c1)[C@@H]1C=CC[C@@H]1[C@@H](c1ccc(Cl)cc1Cl)N2, which “fold change (FC)” value is on record?
Its value is 1.5.

Which “fold change (FC)” value does the source give for O=c1[nH]c(-c2ccc3c(c2)[C@@H]2C=CC[C@@H]2[C@@H](c2ccc(Cl)cc2Cl)N3)no1 here?
Its value is 3.4.

For CONC(=O)c1ccc2c(c1)[C@@H]1C=CC[C@@H]1[C@@H](c1ccc(Cl)cc1Cl)N2, which “fold change (FC)” value is on record?
The value was 2.2.

For O=C(O)c1ccc2c(c1)C1C=CCC[C@@H]1[C@@H](c1ccc(Cl)cc1Cl)N2 (single isomer, unassigned), which “fold change (FC)” value is on record?
The value was 4.5.

With O=C(O)c1ccc2c(c1)C1OCCC[C@@H]1[C@@H](c1ccc(Cl)cc1Cl)N2 (single isomer, unassigned) as the compound, how does the “fold change (FC)” value read?
The value was 1.5.

With O=C(O)c1ccc2c(c1)C1CCCC[C@@H]1[C@@H](c1ccc(Cl)cc1Cl)N2 (single isomer, unassigned) as the compound, how does the “fold change (FC)” value read?
Its value is 3.6.
